Measurements from patent publication US20070154567A1, “Use of mercury to treat cancer” (priority 2006, published 2007).

System: non-operable neck tumor of unknown origin and metastasis in the lungs
Experiment: Oral inorganic mercury (II) treatment of a pet English Setter: blood data and clinical follow-up
Format: in vivo, dog
Set-up: Anion Gap / MCV / MCH / MCHC / Neutrophils, absolute / Lymphocytes, absolute / Monocytes, absolute / Eosinophils, absolute: unit not given here
Method: A 10 years old female English Setter was diagnosed with a non-operable neck tumor of unknown origin and metastasis in the lungs.
The dog completed 130-day inorganic mercury (II) treatment that consisted of 58 days of the first treatment course followed by 20 days of an interval period, and the 52-day second treatment course. The formulation contained 1 mM mercury acetate in 20 mM sodium acetate buffer, pH 4.5, with 100 mM sucrose and 150 mM sodium chloride additives. It was introduced orally to the dog three times a day at 0.5 micromole Hg^2+/kg/day. At the start of the treatment, the dog was in poor health condition: was easily tired, had difficulty to swallow, heavy breathing due to lung metastasis. The tumor was easily palpated at the neck. […] These changes were correlated with reduction in ALP levels (Days 5, 22, 40, 65).
During the second treatment course the progression of the disease was slowed down, but not to the degree observed during the first treatment course. The treatment was stopped at Day 128, and the dog was euthanized 2-3 weeks later.

Q: How did the Albumin (Day 65) turn out when `CC(=O)[O-].CC(=O)[O-].[Hg+2]` [inorganic mercury (II), mercury acetate] was run?
A: Its Albumin is 3.5 g/dL.

Q: And the “Albumin/Globulin Ratio” value (Day 65)?
A: Its value is 1.5.

Q: What about the “Alkaline Phosphatase (ALP)” value (Day 65) of the same molecule?
A: The value was 78 U/L.

Q: What about the Amylase (Day 65) of the same molecule?
A: The Amylase was 431 U/L.

Q: And the “Anion Gap” value (Day 65)?
A: Its value is 27.

Q: And the BUN (Day 65)?
A: Its BUN is 30 mg/dL.

Q: And the “BUN/Creatinine Ratio” value (Day 65)?
A: Its value is 30.

Q: And the CPK (Day 65)?
A: Its CPK is 120 U/L.

Q: What about the Calcium (Day 65) of the same molecule?
A: The Calcium was 10.5 mg/dL.

Q: And the Chloride (Day 65)?
A: Its Chloride is 109 mE/L.

Q: And the Cholesterol (Day 65)?
A: Its Cholesterol is 169 mg/dL.

Q: And the Creatinine (Day 65)?
A: The Creatinine was 1.0 mg/dL.

Q: And the “Direct Billirubin” value (Day 65)?
A: The value was 0.1 mg/dL.

Q: And the “Eosinophils, (%)” value (Day 65)?
A: Its value is 1%.

Q: What about the “Eosinophils, absolute” value (Day 65) of the same molecule?
A: The value was 211.

Q: What about the GGT (Day 65) of the same molecule?
A: Its GGT is 7 U/L.

Q: And the Globulin (Day 65)?
A: The Globulin was 2.4 g/dL.

Q: What about the Glucose (Day 65) of the same molecule?
A: Its Glucose is 94 mg/dL.

Q: What about the Hematocrit (Day 65) of the same molecule?
A: The Hematocrit was 44.6%.

Q: What about the Hemoglobin (Day 65) of the same molecule?
A: Its Hemoglobin is 14.3 g/dL.

Q: And the “Indirect Billirubin” value (Day 65)?
A: Its value is 0 mg/dL.

Q: And the Lipase (Day 65)?
A: The Lipase was 449 U/L.

Q: What about the “Lymphocytes, (%)” value (Day 65) of the same molecule?
A: Its value is 61%.

Q: And the “Lymphocytes, absolute” value (Day 65)?
A: The value was 12871.

Q: And the MCH (Day 65)?
A: The MCH was 23.5.

Q: What about the MCHC (Day 65) of the same molecule?
A: Its MCHC is 32.1.

Q: What about the MCV (Day 65) of the same molecule?
A: The MCV was 73.

Q: What about the Na/K ratio (Day 65) of the same molecule?
A: The Na/K ratio was 29.

Q: What about the “Neutrophils, (%)” value (Day 65) of the same molecule?
A: The value was 38%.

Q: What about the “Neutrophils, absolute” value (Day 65) of the same molecule?
A: Its value is 8018.

Q: And the Phosphorus (Day 65)?
A: Its Phosphorus is 4.4 mg/dL.

Q: What about the Platelet count (Day 65) of the same molecule?
A: Its Platelet count is 404 10^3/microl.

Q: What about the Potassium (Day 65) of the same molecule?
A: Its Potassium is 5.2 mE/L.

Q: And the RBC (Day 65)?
A: The RBC was 6.09 10^6/microl.

Q: And the Sodium (Day 65)?
A: Its Sodium is 150 mE/L.

Q: And the T4 (Day 65)?
A: The T4 was 1.6 µg/dL.

Q: What about the “Total Billirubin” value (Day 65) of the same molecule?
A: Its value is 0.1 mg/dL.

Q: What about the “Total Protein” value (Day 65) of the same molecule?
A: The value was 5.9 g/dL.

Q: And the WBC (Day 65)?
A: Its WBC is 21.1 10^3/microl.

Q: What about the tCO2 (Day 65) of the same molecule?
A: Its tCO2 is 19 mEq/L.

Q: What about the “ALT (SGPT)” value (Day 103) of the same molecule?
A: Its value is 95 U/L.

Q: What about the “AST (SGOT)” value (Day 103) of the same molecule?
A: Its value is 25 U/L.

Q: What about the Albumin (Day 103) of the same molecule?
A: Its Albumin is 3.2 g/dL.

Q: What about the “Albumin/Globulin Ratio” value (Day 103) of the same molecule?
A: Its value is 1.3.

Q: And the “Alkaline Phosphatase (ALP)” value (Day 103)?
A: The value was 58 U/L.

Q: And the Amylase (Day 103)?
A: The Amylase was 745 U/L.

Q: And the “Anion Gap” value (Day 103)?
A: Its value is 27.

Q: And the BUN (Day 103)?
A: Its BUN is 13 mg/dL.

Q: What about the “BUN/Creatinine Ratio” value (Day 103) of the same molecule?
A: The value was 16.3.

Q: And the CPK (Day 103)?
A: The CPK was 103 U/L.

Q: And the Calcium (Day 103)?
A: The Calcium was 9.6 mg/dL.

Q: And the Chloride (Day 103)?
A: The Chloride was 107 mE/L.

Q: What about the Cholesterol (Day 103) of the same molecule?
A: The Cholesterol was 146 mg/dL.

Q: And the Creatinine (Day 103)?
A: Its Creatinine is 0.8 mg/dL.

Q: And the “Direct Billirubin” value (Day 103)?
A: Its value is 0.1 mg/dL.

Q: What about the “Eosinophils, (%)” value (Day 103) of the same molecule?
A: Its value is 1%.

Q: What about the “Eosinophils, absolute” value (Day 103) of the same molecule?
A: Its value is 165.

Q: What about the GGT (Day 103) of the same molecule?
A: Its GGT is 6 U/L.

Q: And the Globulin (Day 103)?
A: Its Globulin is 2.4 g/dL.

Q: And the Glucose (Day 103)?
A: The Glucose was 107 mg/dL.

Q: And the Hematocrit (Day 103)?
A: Its Hematocrit is 40.7%.

Q: And the Hemoglobin (Day 103)?
A: Its Hemoglobin is 13.4 g/dL.

Q: What about the “Indirect Billirubin” value (Day 103) of the same molecule?
A: The value was 0 mg/dL.

Q: And the Lipase (Day 103)?
A: Its Lipase is 630 U/L.

Q: What about the “Lymphocytes, (%)” value (Day 103) of the same molecule?
A: Its value is 71%.

Q: What about the “Lymphocytes, absolute” value (Day 103) of the same molecule?
A: The value was 11715.

Q: What about the MCH (Day 103) of the same molecule?
A: The MCH was 23.4.

Q: And the MCHC (Day 103)?
A: The MCHC was 32.9.

Q: What about the MCV (Day 103) of the same molecule?
A: The MCV was 71.

Q: What about the “Monocytes, (%)” value (Day 103) of the same molecule?
A: Its value is 7%.

Q: And the “Monocytes, absolute” value (Day 103)?
A: The value was 1155.

Q: What about the Na/K ratio (Day 103) of the same molecule?
A: The Na/K ratio was 28.

Q: What about the “Neutrophils, (%)” value (Day 103) of the same molecule?
A: Its value is 20%.

Q: And the “Neutrophils, absolute” value (Day 103)?
A: Its value is 3300.

Q: What about the Phosphorus (Day 103) of the same molecule?
A: Its Phosphorus is 3.7 mg/dL.

Q: And the Platelet count (Day 103)?
A: The Platelet count was 409 10^3/microl.

Q: What about the Potassium (Day 103) of the same molecule?
A: Its Potassium is 5.2 mE/L.

Q: And the RBC (Day 103)?
A: The RBC was 5.72 10^6/microl.

Q: And the Sodium (Day 103)?
A: Its Sodium is 148 mE/L.

Q: What about the T4 (Day 103) of the same molecule?
A: Its T4 is 1.4 µg/dL.

Q: And the “Total Billirubin” value (Day 103)?
A: Its value is 0.1 mg/dL.

Q: And the “Total Protein” value (Day 103)?
A: The value was 5.6 g/dL.

Q: What about the WBC (Day 103) of the same molecule?
A: Its WBC is 16.5 10^3/microl.

Q: What about the tCO2 (Day 103) of the same molecule?
A: The tCO2 was 19 mEq/L.

Q: And the “ALT (SGPT)” value (Day 128)?
A: The value was 89 U/L.

Q: What about the “AST (SGOT)” value (Day 128) of the same molecule?
A: The value was 23 U/L.

Q: What about the Albumin (Day 128) of the same molecule?
A: The Albumin was 3.0 g/dL.

Q: And the “Albumin/Globulin Ratio” value (Day 128)?
A: The value was 1.2.

Q: And the “Alkaline Phosphatase (ALP)” value (Day 128)?
A: Its value is 45 U/L.

Q: What about the Amylase (Day 128) of the same molecule?
A: Its Amylase is 633 U/L.

Q: What about the “Anion Gap” value (Day 128) of the same molecule?
A: The value was 22.

Q: And the BUN (Day 128)?
A: Its BUN is 24 mg/dL.

Q: And the “BUN/Creatinine Ratio” value (Day 128)?
A: Its value is 30.

Q: What about the CPK (Day 128) of the same molecule?
A: The CPK was 53 U/L.

Q: What about the Calcium (Day 128) of the same molecule?
A: Its Calcium is 9.9 mg/dL.

Q: And the Chloride (Day 128)?
A: Its Chloride is 116 mE/L.

Q: What about the Cholesterol (Day 128) of the same molecule?
A: The Cholesterol was 133 mg/dL.

Q: And the Creatinine (Day 128)?
A: The Creatinine was 0.8 mg/dL.

Q: What about the “Direct Billirubin” value (Day 128) of the same molecule?
A: Its value is 0.1 mg/dL.

Q: What about the “Eosinophils, (%)” value (Day 128) of the same molecule?
A: The value was 2%.

Q: What about the “Eosinophils, absolute” value (Day 128) of the same molecule?
A: Its value is 330.

Q: And the GGT (Day 128)?
A: Its GGT is 13 U/L.

Q: And the Globulin (Day 128)?
A: The Globulin was 2.6 g/dL.

Q: What about the Glucose (Day 128) of the same molecule?
A: Its Glucose is 116 mg/dL.

Q: And the Hematocrit (Day 128)?
A: Its Hematocrit is 38.1%.

Q: And the Hemoglobin (Day 128)?
A: The Hemoglobin was 12.3 g/dL.

Q: What about the “Indirect Billirubin” value (Day 128) of the same molecule?
A: The value was 0 mg/dL.

Q: And the Lipase (Day 128)?
A: Its Lipase is 415 U/L.

Q: What about the “Lymphocytes, (%)” value (Day 128) of the same molecule?
A: Its value is 46%.

Q: What about the “Lymphocytes, absolute” value (Day 128) of the same molecule?
A: The value was 7774.

Q: What about the MCH (Day 128) of the same molecule?
A: The MCH was 22.6.

Q: And the MCHC (Day 128)?
A: The MCHC was 32.2.

Q: And the MCV (Day 128)?
A: Its MCV is 70.

Q: And the “Monocytes, (%)” value (Day 128)?
A: Its value is 5%.

Q: What about the “Monocytes, absolute” value (Day 128) of the same molecule?
A: Its value is 845.

Q: And the Na/K ratio (Day 128)?
A: The Na/K ratio was 31.

Q: And the “Neutrophils, (%)” value (Day 128)?
A: The value was 47%.

Q: And the “Neutrophils, absolute” value (Day 128)?
A: The value was 7943.

Q: What about the Phosphorus (Day 128) of the same molecule?
A: Its Phosphorus is 3.1 mg/dL.

Q: And the Platelet count (Day 128)?
A: Its Platelet count is 508 10^3/microl.

Q: What about the Potassium (Day 128) of the same molecule?
A: Its Potassium is 4.8 mE/L.

Q: And the RBC (Day 128)?
A: The RBC was 5.44 10^6/microl.

Q: What about the Sodium (Day 128) of the same molecule?
A: Its Sodium is 151 mE/L.

Q: And the T4 (Day 128)?
A: The T4 was 1.1 µg/dL.

Q: What about the “Total Billirubin” value (Day 128) of the same molecule?
A: Its value is 0.1 mg/dL.

Q: What about the “Total Protein” value (Day 128) of the same molecule?
A: Its value is 5.6 g/dL.

Q: What about the WBC (Day 128) of the same molecule?
A: The WBC was 16.9 10^3/microl.

Q: What about the tCO2 (Day 128) of the same molecule?
A: The tCO2 was 19 mEq/L.

Q: And the general condition (during the first treatment course)?
A: The general condition was “steady improvement”.

Q: And the “progression of the disease” value (during the second treatment course, not to the degree of the first course)?
A: The value was “slowed down”.
